This is an account of results in patent US9186322B2, “Platinum aggregates and process for producing the same” (Insmed Incorporated, priority 2002, dated 2015).

SMILES strings stand for the structures.

This data set in a line: TEM analysis of particles. In kind it is physicochemical. The following applies: not complexed with a lipid. Here is the method:
The white to portion containing mostly light fraction was removed and the yellowish brown fraction on the bottom was used for TEM analysis. A small amount of sample (less than 10 microliters) was placed on the carbon coated grid. The grid was placed on the top of a piece of filter paper and spun an Eppendorf centrifuge for 1 minute at 500 RPM to remove excess water. Samples were air-dried for at least one hour before analysis. If centrifugation was done at too low a speed, water was not removed sufficiently enough, and the sample remained too thick, even after drying, tending to boil when exposed to high vacuum inside the TEM microscope. Centrifugation conditions were adjusted to be gentle enough to avoid damage to the grid or loss of the sample.
The cisplatin solution was briefly sonicated in a bath of room temperature water. At the first signs of cisplatin precipitation and cloudiness, a small volume was taken with a pipette and immediately placed on a carbon coated grid as described in the preceding paragraph.
TEM images were obtained on a Zeiss 910 Transmission Electron Microscope at the Princeton Imaging and Analysis Center, Princeton University, Princeton, N.J. An accelerating high voltage of 100 kV was used, and pictures were captured on a charged couple device (CCD) camera at magnifications of 2000 to 25,000×. […]

Turning to `N.N.[Cl][Pt][Cl]` [cisplatin, cis-diamine-dichloroplatinum (II)], the crystal length is on record as 10-20 microns and the crystal width entry is “approximately 2 microns”.
